Patent US9725490B2, “ERAP1-derived peptide and use thereof” (TOKUSHIMA UNIVERSITY, priority 2011, dated 2017)

Key:
[1] = target: T1, binding of inherent ERAP1 and inherent PHB2/REA (Homo sapiens, UniProt Q99623); assay: Inhibition of ERAP1-PHB2/REA binding in cells, immunoprecipitation-Western blotting; type: cell-based; details: MCF-7 and KPL-3C cells; 10 μM peptide; 10 nM E2 24 hours
T1 construct: endogenous in cells; host or cells: MCF-7 and KPL-3C breast cancer cells

[2] = test system: ERα phosphorylation; assay: E2-induced ERα phosphorylation, Western blotting, MCF-7; type: cell-based, human; details: 3 hours to 24 hours after E2
[3] = test system: transcriptional activity of ERα (ERE); assay: ERE-luciferase reporter assay in MCF-7 cells; type: cell-based, human; details: 10 nM E2 24 hours
Method: FIG. 3-2 is a diagram illustrating promotion effect of PHB2 nuclear translocation and suppression effect of the transcriptional activation of ER by ERAP1-peptide treatment. (C) illustrates representative images of stained immune cells, showing the localization of the ERAP1-peptide (HA-tagged ERAP1-peptide) and PHB2. MCF-7 cells were treated with 10 μM HA-tagged ERAP1-peptide for 24 hours in the presence or in the absence of 10 nM E2. After the immobilization, the cells were subjected to immunonfluorescent staining using an anti-HA antibody, an anti-PHB2 antibody and DAPI (for discriminating the nucleus). The arrow indicates the nuclear-translocated ERAP1-peptide. […] Then, immediately, the cells were stimulated with 10 nM E2 for 24 hours. TAM indicates the tamoxifen treatment.
(§1) FIG. 3-3 is as diagram illustrating the results of the luciferase assay by which the inhibition effect of the ERAP1-peptide was evaluated. MCF-7 cells temporarily transfected with an ERE-luciferase reporter vector (F) or an AP-1-luciferase reporter vector (F) were treated with the ERAP1-peptide, the scramble peptide or the mutant peptide in the concentrations shown in the […]. Then, immediately, the cells were stimulated with 10 nM E2 for 24 hours. TAM indicates the tamoxifen treatment.
(§2) FIG. 4-3 is a diagram illustrating that the ERAP1-peptide promotes nuclear translocation of PHB2. (C) and (D) are figures that show the results of the luciferase assay by which the inhibition effect of the ERAP1-peptide on the ERα transcriptional activity was evaluated. MCF-7 cells temporarily transfected with an ERE-luciferase reporter vector (C) or an AP-1-luciferase reporter vector (D) were treated with the ERAP1-peptide in the concentrations shown in the figure or 10 nM tamoxifen. Then, immediately, the cells were stimulated with 10 nM E2 thr 24 hours.
(§3) For ERE reporter assay, MCF-7 cells were transfected with ERE reporter (SABiosciences, Frederick, Md., USA) in accordance with the instruction of the manufacturer. For AP-1 reporter assay, MCF-7 cells were transfected with AP-1 reporter (mouse IL-11 promoter comprising two tandem AP-1 sites subcloned into PGL2-basic vector), c-fos, c-Jun and pRL-TK as an internal standard. After 16 hours from the transfection, the culture medium was exchanged with an assay culture medium (Opti-MEM, 10% FBS, 0.1 mM NEAA, 0.1 mM Sodium pyruvate and 10 μg/ml insulin) After 24 hours from the transfection, the cells were treated with E2 and/or the ERAP1-peptide or 24 hours. The cells were harvested, and the activities of luciferase and Renilla-luciferase were evaluated using Promega dual luciferase reporter assay (Tokyo, Japan). In consideration of the transfection efficiency, all of the data were standardized by the activity of Renilla-luciferase.

[4] = test system: KPL-3C tumor; assay: In vivo inhibition of tumor proliferation, concomitant use with tamoxifen, KPL-3C transplant; parameters: species or system BALB/c nude mouse; details: intraperitoneal every day, day 14
Excerpt: FIG. 18 is a diagram illustrating the influence of concomitant use of the ERAP1-peptide and tamoxifen on tumor proliferation in a human breast cancer-transplanted mouse. KPL-3 cells were subcutaneously transplanted into the breast fat body of a BALB/c nude mouse. The treatment test individuals/group) was initiated (day 0) when the volume of the tumor reached about 50-80 mm^3 in the absence E2.
KPL-3 cells were subcutaneously transplanted into the breast fat body of a BALB/c nude mouse. When the volume of the tumor reached about 50-80 mm^3 in the absence of E2, the treatment test (5 individuals/group) was initiated (day 0). KPL-3C tumor heterotransplant-carrying mouse was administered with the ERAP1-peptide alone (3.5, 7 and 14 mg/kg), the scramble peptide alone (14 mg/kg), tamoxifen alone (4 mg/kg) or a combination of the ERAP1-peptide (14 mg/kg) and tamoxifen (4 mg/kg) every day by intraperitoneal injection.

[5] = test system: transcriptional activity of ERα (AP-1); assay: AP-1-luciferase reporter assay in MCF-7 cells; type: cell-based, human; details: 10 nM E2 24 hours
Method: as §1, §2, §3

T1 sequence (Q99623 2-299 limits assumed): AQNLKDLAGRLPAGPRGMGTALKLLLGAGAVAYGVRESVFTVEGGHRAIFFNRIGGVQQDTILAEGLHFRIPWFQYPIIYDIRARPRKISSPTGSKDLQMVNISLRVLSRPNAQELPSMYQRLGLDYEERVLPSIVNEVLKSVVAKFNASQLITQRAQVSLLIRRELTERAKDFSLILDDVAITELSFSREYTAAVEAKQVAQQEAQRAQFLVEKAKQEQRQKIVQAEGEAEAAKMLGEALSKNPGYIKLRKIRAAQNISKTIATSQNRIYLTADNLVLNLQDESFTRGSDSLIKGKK

Row | Compound | inhibition of the binding of inherent ERAP1 and inherent PHB2/REA [1] | E2-dependent phosphorylation of six sites of ERα [2] | transcriptional activity of ERα in ERE [3] | antitumor effect (tumor volume) [4] | transcriptional activity of ERα in AP-1 [5]
1 | CSCC[C@H](NC(=O)[C@H](CCC(N)=O)NC(=O)[C@H](CCCNC(=N)N)NC(=O)[C@H](CCCNC(=N)N)NC(=O)[C@H](CCCNC(=N)N)NC(=O)[C@H](CCCNC(=N)N)NC(=O)[C@H](CCCNC(=N)N)NC(=O)[C@H](CCCNC(=N)N)NC(=O)[C@H](CCCNC(=N)N)NC(=O)[C@H](CCCNC(=N)N)NC(=O)[C@H](CCCNC(=N)N)NC(=O)[C@H](CCCNC(=N)N)NC(=O)[C@@H](N)CCCNC(=N)N)C(=O)N[C@@H](CC(C)C)C(=O)N[C@@H](CO)C(=O)N[C@@H](CC(=O)O)C(=O)N[C@@H](CC(C)C)C(=O)N[C@H](C(=O)N[C@@H](CC(C)C)C(=O)N[C@@H](CCC(N)=O)C(=O)N[C@@H](CC(C)C)C(=O)N[C@@H](CCCNC(=N)N)C(=O)N[C@@H](CCC(N)=O)C(=O)N[C@@H](CCCNC(=N)N)C(=O)O)[C@@H](C)O [ERAP1-peptide] | remarkably inhibited | suppressed to the same degree as that of no administration of E2 | suppressed the transcriptional activity of ERα | dose-dependent (3.5, 7 and 14 mg/kg) antitumor effect | suppressed the transcriptional activity of ERα
2 | DRQLQLSTLQRML (SEQ ID NO: 28) (ERAP1-scramble peptide) [reference compound] | not recognized in any of the cells | the suppression effect was not recognized | no change was recognized | the effect was not recognized | no change was recognized
